Test results: PubChem BioAssay AID330 (DTP/NCI, 2004)
Inconclusive results and toxic doses are left out. The calls were made as follows: active = survival T/C of 150% or more; inactive = T/C below 125% in these data.

System: P388 leukemia ip, CD2F1 mice, survival T/C
Assay: NCI In Vivo Anticancer Drug Screen. Data for tumor model P388 Leukemia (intraperitoneal) in CD2F1 (CDF1) mice
Settings: endpoint: median survival time, higher = longer survival
Summary of the method: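 Mice carrying the transplanted tumor received test compound or vehicle. Survival was recorded in each group, and the value is the treated-group measurement divided by that of the vehicle-treated control group.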

[1] = dose: 200.0 mg/kg/injection, schedule: Q01DX001 (ip), vehicle: saline with Tween-80
[2] = dose: 50.0 mg/kg/injection, schedule: Q01DX009 (ip), vehicle: saline with Tween-80
[3] = dose: 100.0 mg/kg/injection, schedule: Q01DX009 (ip), vehicle: saline with Tween-80
[4] = dose: 200.0 mg/kg/injection, schedule: Q01DX009 (ip), vehicle: saline with Tween-80
[5] = dose: 100.0 mg/kg/injection, schedule: Q04DX003 (ip), vehicle: saline with Tween-80
[6] = dose: 200.0 mg/kg/injection, schedule: Q04DX003 (ip), vehicle: saline with Tween-80

Measured: T/C

C=C(C#N)N(C)c1ccccc1
inactive: dose: 3.12 mg/kg/injection, schedule: Q01DX005 (ip), vehicle: Klucel (hydroxypropylcellulose) (HPC) 94 % of control | dose: 6.25 mg/kg/injection, schedule: Q01DX005 (ip), vehicle: Klucel (hydroxypropylcellulose) (HPC) 111 % of control | dose: 12.5 mg/kg/injection, schedule: Q01DX005 (ip), vehicle: Klucel (hydroxypropylcellulose) (HPC) 94 % of control

N/C(=N\N=C1CCCCC1)N[N+](=O)[O-]
inactive: dose: 50.0 mg/kg/injection, schedule: Q01DX005 (ip), vehicle: Klucel (hydroxypropylcellulose) (HPC) 105 % of control | dose: 100.0 mg/kg/injection, schedule: Q01DX005 (ip), vehicle: Klucel (hydroxypropylcellulose) (HPC) 102 % of control | dose: 200.0 mg/kg/injection, schedule: Q01DX005 (ip), vehicle: Klucel (hydroxypropylcellulose) (HPC) 102 % of control

SC(Cc1nc2ccccc2[nH]1)c1nc2ccccc2[nH]1 (configuration not stated)
inactive: dose: 100.0 mg/kg/injection, schedule: Q01DX001 (ip), vehicle: Klucel + Tween-80 93 % of control | dose: 200.0 mg/kg/injection, schedule: Q01DX001 (ip), vehicle: Klucel + Tween-80 93 % of control | dose: 400.0 mg/kg/injection, schedule: Q01DX001 (ip), vehicle: Klucel + Tween-80 100 % of control

COC(=O)C1=C(C(=O)OC)N2c3ccccc3-n3c(-c4ccccc4)cc(OC)c3C2(C)C(C(=O)OC)=C1C(=O)OC (configuration not stated)
inactive: dose: 100.0 mg/kg/injection, schedule: Q01DX001 (ip), vehicle: saline with Tween-80 99 % of control | [1] 99 % of control | dose: 400.0 mg/kg/injection, schedule: Q01DX001 (ip), vehicle: saline with Tween-80 92 % of control

O=C(O)P(=O)(O)O
inactive: dose: 50.0 mg/kg/injection, schedule: Q01DX009 (ip), vehicle: water 95 % of control | dose: 100.0 mg/kg/injection, schedule: Q01DX009 (ip), vehicle: water 103 % of control | dose: 200.0 mg/kg/injection, schedule: Q01DX009 (ip), vehicle: water 100 % of control

CCCCCCCCC(CCc1ccccc1)CCc1ccccc1
inactive: dose: 50.0 mg/kg/injection, schedule: Q01DX001 (ip), vehicle: saline with Tween-80 88 % of control | [1] 100 % of control

CCC1=C[C@H]2CN(CCc3c([nH]c4ccccc34)[C@@](C(=O)OC)(c3cc4c(cc3OC)N(C=O)[C@H]3[C@@](O)(C(=O)OC)[C@H](OC(C)=O)[C@]5(CC)C=CCN6CC[C@]43[C@@H]65)C2)C1
inactive: dose: 0.13 mg/kg/injection, schedule: Q01DX001 (ip), vehicle: water 99 % of control | dose: 0.25 mg/kg/injection, schedule: Q01DX001 (ip), vehicle: water 100 % of control | dose: 0.5 mg/kg/injection, schedule: Q01DX001 (ip), vehicle: water 116 % of control

CC(=O)Nc1ccc(NC(=O)Nc2c(Cl)cccc2Cl)cc1
inactive: dose: 50.0 mg/kg/injection, schedule: Q01DX009 (ip), vehicle: Klucel (hydroxypropylcellulose) (HPC) 100 % of control | dose: 100.0 mg/kg/injection, schedule: Q01DX009 (ip), vehicle: Klucel (hydroxypropylcellulose) (HPC) 98 % of control | dose: 200.0 mg/kg/injection, schedule: Q01DX009 (ip), vehicle: Klucel (hydroxypropylcellulose) (HPC) 91 % of control

Nc1nc(Cl)nc(Nc2ccc(-c3cc4ccc(-c5ncc[nH]5)cc4[nH]3)cc2)n1
inactive: dose: 60.0 mg/kg/injection, schedule: Q01DX005 (ip), vehicle: Klucel (hydroxypropylcellulose) (HPC) 88 % of control | dose: 120.0 mg/kg/injection, schedule: Q01DX005 (ip), vehicle: Klucel (hydroxypropylcellulose) (HPC) 88 % of control | dose: 240.0 mg/kg/injection, schedule: Q01DX005 (ip), vehicle: Klucel (hydroxypropylcellulose) (HPC) 87 % of control

CCCCCCCCCCCC(=O)N(CCOC(=O)c1ccccc1)CCc1ccccc1
inactive: [2] 109 % of control | [3] 109 % of control | [4] 116 % of control

c1ccc(ON=C2c3ccccc3-c3ccccc32)cc1
inactive: dose: 75.0 mg/kg/injection, schedule: Q04DX003 (ip), vehicle: saline 113 % of control | dose: 125.0 mg/kg/injection, schedule: Q04DX003 (ip), vehicle: saline 109 % of control | dose: 250.0 mg/kg/injection, schedule: Q04DX003 (ip), vehicle: saline 104 % of control

CC(=O)Nc1ncn[nH]1
inactive: [2] 100 % of control | [3] 90 % of control | [5] 100 % of control | [4] 90 % of control | [6] 90 % of control

Cc1ccc(S(=O)(=O)OC2C(COCC(=O)O)OC3OC(C)(C)OC32)cc1 (configuration not stated)
inactive: [5] 95 % of control | [6] 95 % of control | dose: 400.0 mg/kg/injection, schedule: Q04DX003 (ip), vehicle: saline with Tween-80 90 % of control

CN(/C(=N/C(=S)NCc1ccccc1)SCc1ccccc1)c1ccccc1
inactive: dose: 50.0 mg/kg/injection, schedule: Q01DX005 (ip), vehicle: saline with Tween-80 94 % of control | dose: 100.0 mg/kg/injection, schedule: Q01DX005 (ip), vehicle: saline with Tween-80 86 % of control
